Results reported in publication PMC3139892, “Effective Control of Postprandial Glucose Level through Inhibition of Intestinal Alpha Glucosidase by Cymbopogon martinii (Roxb.)” (Evidence-based Complementary and Alternative Medicine : eCAM, 2011).

Molecular target: T1, intestinal alpha glucosidase (maltase activity)
T1 construct: gene Mgam; mixture of intestinal alpha-glucosidases
Experiment: maltose hydrolysis, glucose by glucose oxidase (GOD-PAP)
Format: biochemical, Rattus norvegicus
Details: 25 mM maltose, 100 mM phosphate pH 7.2, 37°C, 30 min; mucosal enzyme preparation
Source text: maltose hydrolysis, glucose by glucose oxidase (GOD-PAP) on intestinal alpha glucosidase (maltase activity)

C[C@H]1O[C@H](O[C@H]2[C@H](O)[C@@H](O)[C@@H](O[C@H]3[C@H](O)[C@@H](O)C(O)O[C@@H]3CO)O[C@@H]2CO)[C@H](O)[C@@H](O)[C@@H]1N[C@H]1C=C(CO)[C@@H](O)[C@H](O)[C@H]1O (stereo partly shown) [acarbose]
Acarbose / IC50: 60 µg/mL
